From PubChem BioAssay AID1963828 (Molecular Pharmacology Branch, DTP, NCI, 2024)

Tested on: 991263-137-R1-J2-PDC complex spheroid viability
Assay: Anticancer human tumor 991263-137-R1-J2-PDC patient-derived colon adenocarcinoma cell line growth inhibition [POLQ]
Conditions: for IC50: curve of first compound; for viability, T/C: stronger effect = lower value
How it was run: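 Three-cell-type spheroids modelling solid tumor plus stroma served as the readout system; POL inhibitors were tested individually and in combination, concentration ranges set by clinical Cmax where known.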

[1] = second compound 0.0316 µM, first compound 0.0316 µM
[2] = second compound 0.0316 µM, first compound 0.1 µM
[3] = second compound 0.0316 µM, first compound 0.316 µM
[4] = second compound 0.0316 µM, first compound 1 µM
[5] = second compound 0.0316 µM, first compound 3.16 µM
[6] = second compound 0.0316 µM, first compound 10 µM
[7] = second compound 0.1 µM, first compound 0.0316 µM
[8] = second compound 0.1 µM, first compound 0.1 µM
[9] = second compound 0.1 µM, first compound 0.316 µM
[10] = second compound 0.1 µM, first compound 1 µM
[11] = second compound 0.1 µM, first compound 3.16 µM
[12] = second compound 0.1 µM, first compound 10 µM
[13] = second compound 0.316 µM, first compound 0.0316 µM
[14] = second compound 0.316 µM, first compound 0.1 µM
[15] = second compound 0.316 µM, first compound 0.316 µM
[16] = second compound 0.316 µM, first compound 1 µM
[17] = second compound 0.316 µM, first compound 3.16 µM
[18] = second compound 0.316 µM, first compound 10 µM
[19] = second compound 1 µM, first compound 0.0316 µM
[20] = second compound 1 µM, first compound 0.1 µM
[21] = second compound 1 µM, first compound 0.316 µM
[22] = second compound 1 µM, first compound 1 µM
[23] = second compound 1 µM, first compound 3.16 µM
[24] = second compound 1 µM, first compound 10 µM
[25] = second compound 3.16 µM, first compound 0.0316 µM
[26] = second compound 3.16 µM, first compound 0.1 µM
[27] = second compound 3.16 µM, first compound 0.316 µM
[28] = second compound 3.16 µM, first compound 1 µM
[29] = second compound 3.16 µM, first compound 3.16 µM
[30] = second compound 3.16 µM, first compound 10 µM
[31] = second compound 10 µM, first compound 0.0316 µM
[32] = second compound 10 µM, first compound 0.1 µM
[33] = second compound 10 µM, first compound 0.316 µM
[34] = second compound 10 µM, first compound 1 µM
[35] = second compound 10 µM, first compound 3.16 µM
[36] = second compound 10 µM, first compound 10 µM
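Also: spheroids exposed to compounds for 7 days before readout.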
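For viability, T/C in this document: 100% = DMSO vehicle control viability.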

With `C=CC(=O)N1CCN(c2nc(=O)n(-c3c(C)ccnc3C(C)C)c3nc(-c4c(O)cccc4F)c(F)cc23)C(C)C1` (centres undefined) + Nc1ccc(C#CCN(C(=O)Cc2ncc(C(F)(F)F)cc2C(F)(F)F)c2ccc(F)cc2)nn1 the IC50 (second compound 0.0316 µM) was > 10 µM, the IC50 (second compound 0.1 µM) was > 10 µM and the IC50 (second compound 0.316 µM) was > 10 µM. The IC50 (second compound 1 µM) was > 10 µM, the IC50 (second compound 3.16 µM) was > 10 µM and the IC50 (second compound 10 µM) was > 10 µM. For the same molecule, the viability, T/C [1] was 108%, the viability, T/C [2] was 100% and the viability, T/C [3] was 99.3%. It also gave a viability, T/C [4] of 96.5%, a viability, T/C [5] of 109% and a viability, T/C [6] of 116%. The viability, T/C [7] was 102%, the viability, T/C [8] was 104% and the viability, T/C [9] was 114%. For the same molecule, the viability, T/C [10] was 98%, the viability, T/C [11] was 117% and the viability, T/C [12] was 105%. For the same molecule, the viability, T/C [13] was 104%, the viability, T/C [14] was 105% and the viability, T/C [15] was 102%. For the same molecule, the viability, T/C [16] was 96.7%, the viability, T/C [17] was 113% and the viability, T/C [18] was 106%. It also gave a viability, T/C [19] of 110%, a viability, T/C [20] of 105% and a viability, T/C [21] of 107%. For the same molecule, the viability, T/C [22] was 97.7%, the viability, T/C [23] was 107% and the viability, T/C [24] was 100%. It also gave a viability, T/C [25] of 94.5%, a viability, T/C [26] of 85.6% and a viability, T/C [27] of 102%. It also gave a viability, T/C [28] of 102%, a viability, T/C [29] of 106% and a viability, T/C [30] of 110%. It also gave a viability, T/C [31] of 96.6%, a viability, T/C [32] of 107% and a viability, T/C [33] of 90.6%. For the same molecule, the viability, T/C [34] was 117%, the viability, T/C [35] was 99.8% and the viability, T/C [36] was 100%.

For `O=c1[nH]cc(F)c(=O)[nH]1` + COC1C(OC(N)=O)C(O)C(Oc2ccc3c(O)c(NC(=O)c4ccc(O)c(CC=C(C)C)c4)c(=O)oc3c2C)OC1(C)C, the IC50 (second compound 0.0316 µM) was > 10 µM, the IC50 (second compound 0.1 µM) was > 10 µM and the IC50 (second compound 0.316 µM) was > 10 µM. The IC50 (second compound 1 µM) was > 10 µM, the IC50 (second compound 3.16 µM) was > 10 µM and the IC50 (second compound 10 µM) was > 10 µM. The viability, T/C [1] was 94%, the viability, T/C [2] was 101% and the viability, T/C [3] was 91%. The viability, T/C [4] was 94%, the viability, T/C [5] was 87% and the viability, T/C [6] was 79.3%. The viability, T/C [7] was 103%, the viability, T/C [8] was 104% and the viability, T/C [9] was 108%. The viability, T/C [10] was 82.1%, the viability, T/C [11] was 95.1% and the viability, T/C [12] was 62.5%. The viability, T/C [13] was 87.4%, the viability, T/C [14] was 118% and the viability, T/C [15] was 76.6%. It also gave a viability, T/C [16] of 92.6%, a viability, T/C [17] of 88.1% and a viability, T/C [18] of 84.4%. The viability, T/C [19] was 99%, the viability, T/C [20] was 97.8% and the viability, T/C [21] was 101%. For the same molecule, the viability, T/C [22] was 82.6%, the viability, T/C [23] was 77.3% and the viability, T/C [24] was 69.4%. The viability, T/C [25] was 65%, the viability, T/C [26] was 86.3% and the viability, T/C [27] was 97.9%. The viability, T/C [28] was 92.3%, the viability, T/C [29] was 82.3% and the viability, T/C [30] was 74.9%. For the same molecule, the viability, T/C [31] was 90.6%, the viability, T/C [32] was 107% and the viability, T/C [33] was 87.3%. For the same molecule, the viability, T/C [34] was 83.7%, the viability, T/C [35] was 90.3% and the viability, T/C [36] was 78.3%.
